“And” between values parts separate entries of the source, which are not always exact repeats. Identical values can stand only once.
What follows are sequences tested on MDA-MB-231 (assay: shRNA barcode abundance ratio t_end/t_zero (depletion over 4 weeks of proliferation) (log2 ratio); higher = less depletion (weaker anti-proliferative effect of the shRNA)). Settings: time after t zero 28 days.
Experimental: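 Pooled lentiviral negative-selection screen of 305 pGIPZ shRNAs (Open Biosystems V2LHS clones; the 21-nt half-hairpin sense stem is embedded in a mir-30 scaffold) in MDA-MB-231 breast carcinoma cells, infected at MOI 0.3 with 0.5 ug/ml puromycin selection. Barcode abundance was read on barcode tiling microarrays (six 25-nt probes per 60-nt barcode) at t_zero (5 days post-infection) and t_end (33 days; 28 days of culture after t_zero). Values are median-normalised t_end/t_zero signal ratios, averaged over the tiling probes that passed a 10-fold background filter, from three biological replicates.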

Question: “AAGCGTGCTCTCCGAAGATAA (targeted gene: SORT1)” was tested. Which “shRNA barcode abundance ratio t end/t zero (log2)” value did it give?
Answer: The value was 0.237.

Question: For “ACAGATATTTACTTCTGCAAA (targeted gene: CD28)”, which “shRNA barcode abundance ratio t end/t zero (log2)” value is on record?
Answer: The value was 0.143.

Question: For “ACAGTTTGAGTCAACTAGAAT (targeted gene: CD28)”, which “shRNA barcode abundance ratio t end/t zero (log2)” value is on record?
Answer: Its value is 0.508.

Question: “ACCCATTCTTCCCGTTCTTAA (targeted gene: HDAC1)” was tested. Which “shRNA barcode abundance ratio t end/t zero (log2)” value did it give?
Answer: Its value is 0.135.

Question: “ACCTGCAGAATAATAAAGTCA (targeted gene: S100A8)” was tested. Which “shRNA barcode abundance ratio t end/t zero (log2)” value did it give?
Answer: The value was -0.295.

Question: With “ACGCTCTGTGGCCAGTGTAAA (targeted gene: SULF2)” as the sequence, how does the “shRNA barcode abundance ratio t end/t zero (log2)” value read?
Answer: Its value is 0.249.

Question: For “ACGCTGATCGAGAATGGAGAA (targeted gene: NUP62)”, which “shRNA barcode abundance ratio t end/t zero (log2)” value is on record?
Answer: The value was -0.334.

Question: With “ACTCTAATCTCCACATTTATA (targeted gene: XIAP)” as the sequence, how does the “shRNA barcode abundance ratio t end/t zero (log2)” value read?
Answer: Its value is 0.0933.

Question: Which “shRNA barcode abundance ratio t end/t zero (log2)” value does the source give for “ACTGCTGTACTGGTTTGCAAA (targeted gene: BNIP2)” here?
Answer: The value was 0.104.

Question: “ACTTACACTTAGAAATTAAAT (targeted gene: XIAP)” was tested. Which “shRNA barcode abundance ratio t end/t zero (log2)” value did it give?
Answer: Its value is 0.473.

Question: With “ACTTCAGAAATGGCACGATAA (targeted gene: AATF)” as the sequence, how does the “shRNA barcode abundance ratio t end/t zero (log2)” value read?
Answer: Its value is 0.24.

Question: “AGACATAAAGCCATCTCTTAT (targeted gene: NME5)” was tested. Which “shRNA barcode abundance ratio t end/t zero (log2)” value did it give?
Answer: Its value is 0.11.

Question: How did the “shRNA barcode abundance ratio t end/t zero (log2)” value turn out when “AGAGAGAACTGCTCAGTAATT (targeted gene: BRE)” was run?
Answer: The value was 0.237.

Question: “AGCATTGTCATGAGCTTAATA (targeted gene: API5)” was tested. Which “shRNA barcode abundance ratio t end/t zero (log2)” value did it give?
Answer: Its value is 0.169.

Question: “AGGCAATTTATCTTGATGTGA (targeted gene: FAIM3)” was tested. Which “shRNA barcode abundance ratio t end/t zero (log2)” value did it give?
Answer: The value was 0.137.

Question: “AGGCCTAGAGGTAACCAATAA (targeted gene: PRDX2)” was tested. Which “shRNA barcode abundance ratio t end/t zero (log2)” value did it give?
Answer: Its value is -0.0855.

Question: “CAACGGAACTTGTTTGCTCTT (targeted gene: SOCS3)” was tested. Which “shRNA barcode abundance ratio t end/t zero (log2)” value did it give?
Answer: Its value is -0.536.

Question: How did the “shRNA barcode abundance ratio t end/t zero (log2)” value turn out when “CACCAGCACTTTATACACTTC (targeted gene: RHOC)” was run?
Answer: The value was 0.652.

Question: For “CAGCTTTCAGTCAGATGTATA (targeted gene: BRAF)”, which “shRNA barcode abundance ratio t end/t zero (log2)” value is on record?
Answer: Its value is 0.489.

Question: For “CATCTCAGTATGCATGGTATA (targeted gene: CFLAR)”, which “shRNA barcode abundance ratio t end/t zero (log2)” value is on record?
Answer: Its value is -0.976.

Question: Which “shRNA barcode abundance ratio t end/t zero (log2)” value does the source give for “CCAAAGCATTTCATTGAGAAT (targeted gene: TOPORS)” here?
Answer: Its value is -0.193.

Question: “CCAAATTATGTGTTTCCGAAA (targeted gene: IGF1R)” was tested. Which “shRNA barcode abundance ratio t end/t zero (log2)” value did it give?
Answer: Its value is 0.502.

Question: Which “shRNA barcode abundance ratio t end/t zero (log2)” value does the source give for “CCAAATTGTGTTTGATGGATT (targeted gene: ESR1)” here?
Answer: Its value is 0.202.

Question: For “CCAACACGTTTGAACTGAAAT (targeted gene: BIRC3)”, which “shRNA barcode abundance ratio t end/t zero (log2)” value is on record?
Answer: The value was 0.578.

Question: “CCAACATATCTCACTCTAGAA (targeted gene: BARD1)” was tested. Which “shRNA barcode abundance ratio t end/t zero (log2)” value did it give?
Answer: The value was 0.531.

Question: For “CCAACCACTTCATTCTTGAAA (targeted gene: IL10)”, which “shRNA barcode abundance ratio t end/t zero (log2)” value is on record?
Answer: The value was 0.022 and 0.0479.

Question: How did the “shRNA barcode abundance ratio t end/t zero (log2)” value turn out when “CCAACTAATCTTCGAATCGAA (targeted gene: SOCS2)” was run?
Answer: The value was 0.157.

Question: With “CCAAGTAGACTCACTCCTTAA (targeted gene: BAG4)” as the sequence, how does the “shRNA barcode abundance ratio t end/t zero (log2)” value read?
Answer: The value was -0.102.

Question: “CCAATGATGCTGCTCAAGTTA (targeted gene: ABCB1)” was tested. Which “shRNA barcode abundance ratio t end/t zero (log2)” value did it give?
Answer: Its value is 0.272.

Question: How did the “shRNA barcode abundance ratio t end/t zero (log2)” value turn out when “CCAATTCAAGTGATCCGCAAA (targeted gene: BAG3)” was run?
Answer: Its value is 0.175.

Question: How did the “shRNA barcode abundance ratio t end/t zero (log2)” value turn out when “CCACAGATGTTCATAGACAAT (targeted gene: NFKB1)” was run?
Answer: Its value is 0.547.

Question: “CCACCCTGAGCCATTATCTAA (targeted gene: PSEN1)” was tested. Which “shRNA barcode abundance ratio t end/t zero (log2)” value did it give?
Answer: Its value is 0.146.

Question: For “CCACCTGGACTCCTATGAGAA (targeted gene: SOCS3)”, which “shRNA barcode abundance ratio t end/t zero (log2)” value is on record?
Answer: Its value is 0.145.

Question: For “CCACGCGACATCCAATCCATA (targeted gene: IL3)”, which “shRNA barcode abundance ratio t end/t zero (log2)” value is on record?
Answer: The value was -0.0678.

Question: With “CCAGAAGAGCCTATTACATCT (targeted gene: SOCS3)” as the sequence, how does the “shRNA barcode abundance ratio t end/t zero (log2)” value read?
Answer: The value was 0.25.

Question: “CCAGAATCTCTGGGAATATAA (targeted gene: BFAR)” was tested. Which “shRNA barcode abundance ratio t end/t zero (log2)” value did it give?
Answer: Its value is -0.109.

Question: How did the “shRNA barcode abundance ratio t end/t zero (log2)” value turn out when “CCAGACTCAGTTCACTGCAAA (targeted gene: MALT1)” was run?
Answer: The value was -0.00481.

From the supplement of paper PMC2824726
